Laboratory results published in patent publication US10106625B2, “Pharmaceutical compositions with enhanced performance and improved processability” (HERCULES INCORPORATED, priority 2013, dated 2018).
Where two headings read alike, the source gives them in different places. Blank lines part the entries; values can stand above or below the compound they belong to.

Columns and labels:
[1] = 120 min
Description: Dissolution was performed using a pDISS Profiler™ (available from Pion Inc., MA, USA). Each spray-dried powder was weighed so that the volume adjusted equivalent of the typical daily dose of the drug was added to each vial and compensation was made for the drug load of the samples. For example, the target API was 9.5 mg for Felpdipine in 20 ml of FaSSIF. The spray dried sample containing 9.5 mg API of Felpdipine was weighed. For Ezetimibe, the spray dried sample containing 10 mg API was weighed. The weighed spray dried samples were added to 20 ml of FaSSIF in vials and then heated to 37° C. The vials were maintained at a constant stirring speed of 300 RPM. Dissolution measurements were taken by in situ fiber optic probes at various time points and these measurements were analyzed at the appropriate wavelength for dissolved API concentration. Based on the in situ measurement data, various solubility parameters were calculated.

[2] = cited from earlier work
[3] = Kinetic solubility of spray dried dispersion with Ezetimibe in FaSSIF; type: physicochemical
Description: Hg reduced pressure for 24 hours.

C120 [1]: 28 µg/mL
Compound: CCOC(=O)C1=C(C)NC(C)=C(C(=O)OC)C1c1cccc(Cl)c1Cl (centres unmarked) [Felodipine API, Felodipine]

Compound: CCOC(=O)N1c2ccc(C(F)(F)F)cc2[C@@H](N(Cc2cc(C(F)(F)F)cc(C(F)(F)F)c2)C(=O)OC)C[C@H]1CC [torcetrapib]
aqueous solubility [2]: less than 0.04 μg/ml

C120 ([3]; Ezetimibe SDD, 60% drug load, API concentration at 120 minutes): 14 µg/mL | AUC120 ([3]; Ezetimibe SDD, 60% drug load, FaSSIF 37° C., API concentration over first 120 minutes): 1,626 μg * min/mL | AUC(Rel) ([3]; Ezetimibe, ratio of AUC120 of polymer/drug dispersion versus API alone): 1.0
Compound: O=C1[C@H](CC[C@H](O)c2ccc(F)cc2)[C@@H](c2ccc(O)cc2)N1c1ccc(F)cc1 [Ezetimibe API, Ezetimibe]
